{"source": "patent US20160158317A1", "about": "“Antimicrobial Peptide Variants and Polynucleotides Encoding Same” (Adenium Biotech A/S, priority 2010, published 2016)", "tested_on": "E. coli AID#172", "assay": "Neutropenic thigh infection model, dose-response and estimation of ED50 (Example 4)", "format": "in vivo, Escherichia coli", "experimental": "The purpose of this study was to investigate the dose-response relationship following intravenous (i.v.) administration of a single dose of NZ17074 ranging from 0.16-12 mg/kg. The effect was tested against E. coli AID#172 in the neutropenic thigh model. Treatment with 40 mg/kg meropenem was included as a positive control group. The colony counts in thighs were determined at 5 hours after treatment.\nThe thigh infection model is a well-recognized model for studies of antimicrobial effect and tissue penetration as described by S. Gudmundsson & H. Erlensdóttir: Handbook of Animal Models of Infection (1999), ed. by O. Zak & M. A. Sande, Academic Press, San Diego, US and in several publications. Reviewed by D. Andes & C. Craig: Animal model pharmacokinetics and pharmacodynamics: a critical review. International Journal of Antimicrobial Agents 19(4): 261-268.\n• 40 outbred, NMRI female mice, 25-30 grams (Harlan Scandinavia) • E. coli AID#172 from Statens Serum Institute, Copenhagen, Denmark: Clinical isolate from a human wound from 2003. Multiresistant (Ampicillin, Ceftazidime, Aztreonam, Gentamicin, Ciprofloxacin) • NZ17074 in Ringer Acetate, pH 6: 1.2 mg/ml, 6.0 ml. The solution was stored at 4° C. until use. Analyses of the dose formulations used were performed after completion of the in-life phase of the study and gave the following results: […]\nThe mice were observed during the study and scored 0-5 based on their behaviour and clinical signs. • Score 0: Healthy. • Score 1: Minor clinical signs of infection and inflammation e.g. observations of minor signs of distress or changed activity. • Score 2: Clear signs of infection like, social withdrawal, lack of curiosity, changed body position, piloerection, or changes in pattern of movement. • Score 3: Severe signs of infection like stiff movements, lack of curiosity, changed body position, piloerection, pain, or changes in pattern of movement. • Score 4: Severe pain and the mouse was sacrificed immediately to minimize the suffering of the animal. • Score 5: The mouse was dead.\nColony counts were determined from thighs at 0 and 5 hours. […]", "note": "Values joined by “and” are separate entries in the source; they are usually repeats but may differ in a detail not shown here. Equal values may be shown once.", "data": [{"smiles": "C[C@@H](O)[C@H]1C(=O)N2C(C(=O)O)=C(S[C@@H]3CN[C@H](C(=O)N(C)C)C3)[C@H](C)[C@H]12", "note": "[meropenem]", "values": [{"measurement": "CFU levels in thigh compared to vehicle", "setting": "40 mg/kg i.v., 5 hours", "value": "slight but not significant reduction"}, {"measurement": "log10 CFU thigh mean", "setting": "Meropenem 40 mg/kg single dose, thigh, T = 5, group mean without outlier, not significant vs vehicle", "value": 4.25, "unit": "log10 CFU/ml"}, {"measurement": "log10 CFU thigh", "setting": "Meropenem 40 mg/kg single dose, thigh, T = 5, individual mice, ¤ value excluded from mean as outlier", "value": "3.08¤ log10 CFU/ml and 3.81¤ log10 CFU/ml and 4.99 log10 CFU/ml and 3.94 log10 CFU/ml"}]}]}
